Results taken from patent publication US20040266008A1, “Polyene polyketides, processes for their production and their use as pharmaceuticals” (Ecopia BioSciences, Inc., priority 2003, published 2004).

Columns and labels:
C. albicans (Calb) = experiment: MIC broth microdilution, C. albicans (Calb)
Candida sp. (Cflu) = experiment: MIC broth microdilution, Candida sp. (Cflu)
C. glabrata (Cgla) = experiment: MIC broth microdilution, C. glabrata (Cgla)
S. cerevisiae (Scer) = experiment: MIC broth microdilution, S. cerevisiae (Scer)
C. albicans (Ctro) = experiment: MIC broth microdilution, C. albicans (Ctro)

C[C@@H]1[C@H](O)[C@@H](C)/C=C/C=C/C=C/C=C/C=C/C=C/C=C/[C@H](O[C@@H]2O[C@H](C)[C@@H](O)[C@H](N)[C@@H]2O)C[C@@H]2O[C@](O)(C[C@@H](O)C[C@@H](O)[C@H](O)CC[C@@H](O)C[C@@H](O)CC(=O)O[C@H]1C)C[C@H](O)[C@H]2C(=O)O [Amphotericin B]
Minimal Inhibitory Concentrations (C. albicans (Calb); 24 hrs): 0.5 to 1 µg/mL | Minimal Inhibitory Concentrations (C. albicans (Calb); 48 hrs): 1 µg/mL | Minimal Inhibitory Concentrations (Candida sp. (Cflu); 24 hrs): 0.5 to 1 µg/mL | Minimal Inhibitory Concentrations (Candida sp. (Cflu); 48 hrs): 1 µg/mL | Minimal Inhibitory Concentrations (C. glabrata (Cgla); 24 hrs): 0.5 to 1 µg/mL | Minimal Inhibitory Concentrations (C. glabrata (Cgla); 48 hrs): 1 µg/mL | Minimal Inhibitory Concentrations (S. cerevisiae (Scer); 24 hrs): 0.5 µg/mL | Minimal Inhibitory Concentrations (S. cerevisiae (Scer); 48 hrs): 1 µg/mL | Minimal Inhibitory Concentrations (C. albicans (Ctro); 24 hrs): 1 µg/mL | Minimal Inhibitory Concentrations (C. albicans (Ctro); 48 hrs): 2 µg/mL

C\C(=C/C=C/C=C/CC/C=C/C(C)C(O)C(C)C(O)/C=C/C=C/C=C/C=C/C=C/C=C/CC(OS(=O)(=O)O)C(C)C(=O)CC(O)CC(O)/C=C/CC(O)CC(O)CC(O)/C=C/CC(O)CC(O)/C=C/CC(O)CC(O)CCCNC(=N)N)C(=O)O (centres unmarked) [Compound 1]
Minimal Inhibitory Concentrations (C. albicans (Calb); 24 hrs): 4 µg/mL | Minimal Inhibitory Concentrations (Candida sp. (Cflu); 24 hrs): 8 µg/mL | Minimal Inhibitory Concentrations (C. glabrata (Cgla); 24 hrs): 4 µg/mL | Minimal Inhibitory Concentrations (S. cerevisiae (Scer); 24 hrs): 4 µg/mL | Minimal Inhibitory Concentrations (C. albicans (Ctro); 24 hrs): 4 µg/mL

C\C(=C/C=C/C=C/CC/C=C/C(C)C(O)C(C)C(O)/C=C/C=C/C=C/C=C/C=C/C=C/CC(O)C(C)C(=O)CC(O)CC(O)/C=C/CC(O)CC(O)CC(O)/C=C/CC(O)CC(O)/C=C/CC(O)CC(O)CCCNC(=N)N)C(=O)O (centres unmarked) [Compound 2]
Minimal Inhibitory Concentrations (C. albicans (Calb); 48 hrs): 4 µg/mL | Minimal Inhibitory Concentrations (Candida sp. (Cflu); 48 hrs): 8 µg/mL | Minimal Inhibitory Concentrations (C. glabrata (Cgla); 48 hrs): 4 µg/mL | Minimal Inhibitory Concentrations (S. cerevisiae (Scer); 48 hrs): 4 µg/mL | Minimal Inhibitory Concentrations (C. albicans (Ctro); 48 hrs): 4 µg/mL
